{
  "source": "patent US12624068B2",
  "about": "“Exon skipping by peptide nucleic acid derivatives” (OliPass Corporation, priority 2016, dated 2026)",
  "key": {"human IL-2 mRNA": {"test_system": "human IL-2 mRNA", "experiment": "IL-2 qPCR in Jurkat cells", "format": "cell-based", "details": "24 hours", "experimental": "Down-regulation of the PD-1 activity has been known to upregulate the expression of interleukin 2 (IL-2). [Am. J. Clin. Oncol. Vol 39(1), 98-106 (2016)] […] [Cell Culture & ASO Treatment] Jurkat cells grown in 60 mm culture dish were activated with an anti-CD3 antibody (Cat. Number 16-0037, eBioscience) at 1 μg/mL and an anti-CD28 antibody (Cat. No. 16-0289, eBioscience) at 0.5 μg/mL for 48 hours. Then the culture medium was replaced with fresh medium, and treated with “PD-ASO 3” at 0 (negative control), 10, 100 or 1,000 aM for 24 hours. (4 culture dishes per ASO concentration) [RNA Extraction and cDNA Synthesis] Total RNA was extracted using RNeasy mini prep kit (Qiagen, USA) according to the manufacturer's protocol. […] [qPCR by SYBR] 1 μL of each cDNA solution was subjected to a 20 μL qPCR amplifications against a set of primers targeting the IL-2 mRNA [IL-2_forward: (5'→3') […] NO: 161); and IL-2_reverse: (5'→3') […] NO: 162)] according to the following cycle conditions: 20 seconds at 95° C., 30 seconds at 56° C., and 40 seconds at 72° C. for 40 cycles. The qPCR reaction was probed with SYBR (Bio-Rad, USA)."}, "human PD-1 mRNA": {"test_system": "human PD-1 mRNA", "experiment": "PD-1 nested qPCR in Jurkat cells", "format": "cell-based", "details": "24 hours; for decrease of PD-1 mRNA level (nested qPCR): activated Jurkat cells", "experimental": "[Cell Culture & ASO Treatment] Jurkat cells grown in 60 mm culture dish were activated with an anti-CD3 antibody (Cat. Number 16-0037, eBioscience) at […] and an anti-CD28 antibody (Cat. No. 16-0289, eBioscience) at 0.5 μg/mL for 48 hours. Then the culture medium was replaced with fresh medium, and treated with “PD-ASO 3” at 0 (negative control), 10, 100 or 1,000 aM for 24 hours. (4 culture dishes per ASO concentration) [RNA Extraction and cDNA Synthesis by One Step RT-PCR] Total RNA was extracted using RNAeasy mini prep kit (Qiagen, USA) according to the manufacturer's protocol. […] NO: 157); and PD-exon 5_reverse: (5'→3') […] NO: 158)]. Cycle conditions: 50° C. for 30 minutes and 94° C. for 2 minutes, which was followed by 30 cycles of 30 seconds at 94° C., 30 seconds at 53° C., and 1 minutes at 72° C. [Nested qPCR by SYBR] […] NO: 159); and PD-exon 2_reverse: (5'→3') […] NO: 160)] according to the following cycle conditions: 20 seconds at 95° C., 30 seconds at 56° C., and 40 seconds at 72° C. for 40 cycles. The qPCR reaction was probed with SYBR (Bio-Rad, USA)."}, "human PD-1 pre-mRNA": {"test_system": "human PD-1 pre-mRNA", "experiment": "PD-1 nested PCR for exon skipping in Jurkat cells", "format": "cell-based", "details": "5 hours", "experimental": "“PD-ASO 3” was evaluated for its ability to induce the skipping of the human PD-1 exon 2 in Jurkat cells as follows. [Cell Culture & ASO Treatment] Jurkat cells (Cat. Number TIB-152, ATCC) were maintained in RPMI-1640 supplemented with 10% FBS and 1% streptomycin/penicillin. Jurkat cells grown in 60 mm culture dish containing 5 mL culture medium were treated for 5 hours with “PD-ASO 5” at 0 (negative control), 10, 100 or 1,000 aM. [RNA Extraction and cDNA Synthesis by One Step RT-PCR] Total RNA was extracted using RNAeasy mini prep kit (Qiagen, USA) according to the manufacturer's protocol. […] NO: 153); and PD-exon 5_reverse: (5'→3') […] NO: 154)]. Cycle conditions: 50° C. for 30 minutes and 94° C. for 2 minutes, which was followed by 30 cycles of 30 seconds at 94° C., 30 seconds at 53° C., and 1 minutes at 72° C. [Nested PCR Amplification] 1 μL of cDNA diluted by 100× was further amplified in a 20 μL nested PCR (Invitrogen, USA) using the following cycle conditions: 20 seconds at 95° C., 30 seconds at 56° C., and 40 seconds at 72° C. for 40 cycles against a set of exon-specific primers [PD-exon 1n_forward: (5'→3') […] NO: 155); and PD-exon 5n_reverse: (5'→3') […] NO: 156)]. [Identification of Exon Skipping Products] The resulting nested PCR products were subjected to electrophoretic separation on a 2% agarose gel. The bands of target size were collected and analyzed by Sanger sequencing."}, "[1]": {"test_system": "secretion of kynurenine in SKOV3 cells", "experiment": "Kynurenine secretion assay in SKOV3 cells", "format": "cell-based, human", "details": "24 hours, with 10 ng/mL γ-interferon", "experimental": "The functional activity of “IDO-ASO 1” was evaluated for its ability to inhibit the secretion of kynurenine in SKOV3 cells as follows.\n[Kynurenine Secretion Assay] […] (3 dishes per concentration) Cells were treated with the ASO along with 10 ng/mL γ-interferon to increase the kynurenine secretion. 24 hours later, 200 μL of the culture medium was sampled from each culture dish and mixed with 100 μL 30% trichloroacetic acid. The mixture was vortexed and subjected to centrifugation at 8,000 g for 5 min. 75 μL of the resulting supernatant was mixed with 75 μL Ehrlich reagent (0.8% p-dimethylamino-benzaldehyde in acetic acid), and the mixture was subjected to a quantification for kynurenine at 490 nm on an ELISA reader. [PLOS One 5(8): e63301 (2013)]"}, "human IDO1 pre-mRNA": {"test_system": "human IDO1 pre-mRNA", "experiment": "IDO1 nested PCR for exon skipping in SKOV3 cells", "format": "cell-based", "details": "48 hours", "experimental": "“IDO-ASO 1” was evaluated for its ability to induce exon skipping in SKOV3 cells (Cat. Number HTB-77, ATCC) by IDO1 nested PCR as follows. [Cell Culture & ASO Treatment] SKOV3 (human ovary adenocarcinoma) cells were subcultured in 60 mm culture dish containing 5 mL McCoy's 5A modified medium supplemented with 10% FBS, 1% streptomycin/penicillin, 1% L-glutamine, and 1% sodium pyruvate under 5% CO2 at 37° C., and treated with “IDO-ASO 1” for 48 hours at 0 zM (negative control), 10 zM, 100 zM or 1 aM. [RNA Extraction & cDNA Synthesis by One-Step RT-PCR] Total RNA was extracted from the cells using “Universal RNA Extraction Kit” (Cat. Number 9767, Takara) according to the manufacturer's instructions. […] NO: 114); and IDO-exon 10_reverse: (5'→3') […] [Nested PCR Amplification] 1 μL of cDNA was further amplified in a 20 μL nested PCR reaction (Cat. No. K2612, Bioneer) against a set of exon-specific primers [IDO-exon 4_forward: (5'→3') […] NO: 116); and IDO-exon 9_reverse: (5'→3') […] [Identification of Exon Skipping Product] The PCR products were subjected to electrophoretic separation on a 2% agarose gel. The bands of target size were collected and analyzed by Sanger sequencing. […] [ASO Treatment] SKOV3 cells grown in 60 mm culture dish were treated with “IDO-ASO 5” at 0 (negative control), 1, 3, 10, 30 or 100 aM for 48 hours. [cDNA Synthesis by One-step PCR] […] NO: 119); and IDO-exon 8_reverse: (5'→3') […] [Nested PCR Amplification] 1 μL of cDNA was further amplified in a 20 μL nested PCR (Cat. No. K2612, Bioneer) reaction using a set of exon-specific primers [IDO-exon 1n_forward: (5'→3') […] NO: 121); and IDO-exon 8n_reverse: (5'→3') […] “IDO-ASO 6” was evaluated for its ability to induce exon skipping in SKOV3 cells by IDO1 nested PCR as described in “IDO1 Example 3” unless noted otherwise."}, "[2]": {"test_system": "melanogenesis in B16F10 cells", "experiment": "Melanin content (melanogenesis) in B16F10 cells", "format": "cell-based, mouse", "details": "24 hours", "experimental": "“TYR-ASO 4” was evaluated for its ability to inhibit the melanogenesis in B16F10 cells as described below.\nB16F10 cells grown in 60 mm culture dish containing 5 mL culture medium were treated either with “TYR-ASO 4” at 0 (negative control) or 1 to 1,000 aM, or with 10 or 100 μg/mL arbutin as a positive control. (2 culture dishes per dose) 24 hours later, the cells were subjected to lysis with 200 μL 1N NaOH. Each lysate was collected in 1.5 mL e-tube, and kept overnight at room temperature. The melanin content in each lysate was determined by absorbance at 475 nm on an ELISA reader. The experiment was repeated four times using cells at different passage. The four sets of the melanin content data were pooled for statistical analysis by student's t-test against the melanin content without treatment (negative control)."}, "[3]": {"details": "activated Jurkat cells, 1,000 aM"}},
  "note": "{Fethoc} = N-terminal Fethoc capping group (publication's abbreviation); [C(1O2)] = modified PNA monomer acting as cytosine, C(pOq) type, 1O2; [A(5)] = modified PNA monomer acting as adenine, A(p) type, p=5; [G(6)] = modified PNA monomer acting as guanine, G(p) type, p=6; {NH2} = C-terminal non-substituted amino (amide) group",
  "data": [
    {"compound": "Fethoc-CG(6)C-A(5)CC-TG(6)T-CA(5)C-C(1O2)C-NH2 (CGCACCTGTCACCC; splice-switching; all peptide nucleic acid (PNA), [G(6)] at 2, 8, [A(5)] at 4, 11, [C(1O2)] at 13, 5' {Fethoc}, 3' {NH2}; peptide nucleic acid backbone) [PD-ASO 3]", "values": [
      {"measurement": "increase of IL-2 mRNA level (qPCR)", "setting": "human IL-2 mRNA; activated Jurkat cells, 10 aM", "value": "~140", "unit": "%"},
      {"measurement": "increase of IL-2 mRNA level (qPCR)", "setting": "human IL-2 mRNA; activated Jurkat cells, 100 aM", "value": 120, "unit": "%"},
      {"measurement": "increase of IL-2 mRNA level (qPCR)", "setting": "human IL-2 mRNA; [3]", "value": 40, "unit": "%"},
      {"measurement": "decrease of PD-1 mRNA level (nested qPCR)", "setting": "human PD-1 mRNA; 10 and 100 aM", "value": "> 80", "unit": "%"},
      {"measurement": "PD-1 mRNA level relative to the negative control level (nested qPCR)", "setting": "human PD-1 mRNA; [3]", "value": "~55", "unit": "%"},
      {"measurement": "PD-1 exon skipping by nested PCR", "setting": "human PD-1 pre-mRNA; Jurkat cells, 10 and 100 aM", "value": "yielded a PCR product band corresponding to the skipping of exon 2"},
      {"measurement": "PD-1 exon skipping by nested PCR", "setting": "human PD-1 pre-mRNA; Jurkat cells, 1,000 aM", "value": "the PCR product of exon 2 skipping disappeared"}
    ]},
    {"compound": "Fethoc-GG(6)A-A(5)TT-A(5)CC(1O2)-TAA(5)-A-NH2 (GGAATTACCTAAA; splice-switching; all peptide nucleic acid (PNA), [G(6)] at 2, [A(5)] at 4, 7, 12, [C(1O2)] at 9, 5' {Fethoc}, 3' {NH2}; peptide nucleic acid backbone) [IDO-ASO 1]", "values": [
      {"measurement": "decrease of kynurenine secretion", "setting": "[1]; 1 fM", "value": "~40", "unit": "%"},
      {"measurement": "secretion of kynurenine", "setting": "[1]; 10 zM to 1 fM except 1 aM", "value": "significantly (student's t-test) decreased"},
      {"measurement": "intensity of the full-length IDO-1 mRNA by nested PCR", "setting": "human IDO1 pre-mRNA; 1 aM", "value": "increased"},
      {"measurement": "intensity of the full-length IDO-1 mRNA by nested PCR", "setting": "human IDO1 pre-mRNA; 10 or 100 zM", "value": "decreased"},
      {"measurement": "IDO1 exon skipping band by nested PCR", "setting": "human IDO1 pre-mRNA; 10 zM or 1 aM", "value": "not detected"},
      {"measurement": "skipping of IDO1 exons 6-7 by nested PCR", "setting": "human IDO1 pre-mRNA; 100 zM", "value": "detected"}
    ]},
    {"compound": "OC[C@H]1O[C@@H](Oc2ccc(O)cc2)[C@H](O)[C@@H](O)[C@@H]1O", "note": "[arbutin]", "values": [
      {"measurement": "decrease of melanin content", "setting": "[2]; 10 μg/mL", "value": "~15", "unit": "%"},
      {"measurement": "decrease of melanin content", "setting": "[2]; 100 μg/mL", "value": 25, "unit": "%"}
    ]},
    {"compound": "Fethoc-C(1O2)TG(6)-GG(6)G-AG(6)T-CTG-A(5)G-NH2 (CTGGGGAGTCTGAG; splice-switching; all peptide nucleic acid (PNA), [C(1O2)] at 1, [G(6)] at 3, 5, 8, [A(5)] at 13, 5' {Fethoc}, 3' {NH2}; peptide nucleic acid backbone) [PD-ASO 1]", "values": [
      {"measurement": "decrease of PD-1 mRNA level (nested qPCR)", "setting": "human PD-1 mRNA; 100 and 1,000 aM", "value": "~60", "unit": "%"}
    ]}
  ]
}
